Article PMC7160362, “A Polyamine-Based Dinitro-Naphthalimide Conjugate as Substrates for Polyamine Transporters Preferentially Accumulates in Cancer Cells and Minimizes Side Effects in vitro and in vivo” (Frontiers in Chemistry, 2020)
Like-named read-outs stand apart in the source and are kept apart here.

Experiments:
Type in all cases: cell-based
[1] = test system: cisplatin-sensitive lung cancer cells A549; experiment: MTT cytotoxicity assay; settings: MTT, 48 h
Experimental: (§1) We incubated hepatic carcinoma (Snu-368 and Snu-739), breast carcinoma (MDA-MB-231 and MCF-7), cisplatin-sensitive lung cancer cells A549, and cisplatin-resistant lung cancer cells A549cisR in 96-well plates in a 5% CO2 atmosphere at 37°C for 24 h (5,000 cells/well). After adding drugs in freshly prepared culture medium (100 μl) and incubating for another 48 h, we added 20 μl MTT (5 mg/ml) and incubated for another 3 h. At last, after the medium was removed, 150 μl DMSO was added. By using a Bio-Rad 680 microplate reader, the absorbance was measured at 570 nm and the IC50 values were calculated using the GraphPad Prism software based on three parallel experiments.
(§2) In vitro assays were firstly conducted to evaluate the inhibitory effect of polyamine-based naphthalimide conjugates 5a-5c, 7a-7b, and 11a-11b on six cancer cell lines, namely, Snu-368 and Sun-739 (hepatoma cell line), MCF-7 (breast carcinoma), MDA-MB-231 (triple negative breast cancer), cisplatin-sensitive lung cancer A549, and resistant A549cisR cells by using traditional MTT tests. Two classic antitumor agents in clinic trials, amonafide and cisplatin, were chosen as the reference drugs (Table 1). The preliminary structure–activity relationship (SAR) can be obtained from the in vitro biological results.

[2] = test system: MDA-MB-231 cells (triple negative breast cancer); experiment: MTT cytotoxicity assay; settings: MTT, 48 h
Experimental: as §1, §2

[3] = test system: MCF-7 cells (breast carcinoma); experiment: MTT cytotoxicity assay; settings: MTT, 48 h
Experimental: as §1, §2

[4] = test system: Snu-739 cells (hepatic carcinoma); experiment: MTT cytotoxicity assay; settings: MTT, 48 h
Experimental: as §1, §2

[5] = test system: Snu-368 cells (hepatic carcinoma); experiment: MTT cytotoxicity assay; settings: MTT, 48 h
Experimental: as §1, §2

[6] = test system: cisplatin-resistant lung cancer cells A549cisR; experiment: MTT cytotoxicity assay; settings: for IC50: MTT, 48 h; for RF (resistance factor): IC50 in A549cisR cells/IC50 in A549 cells
Experimental: as §1, §2

[7] = test system: HL-7702 (normal liver cell); experiment: MTT cytotoxicity on matched normal cells
Experimental: as §1
The selectivity for cancer cells over normal healthy cells is important for ideal anticancer agents, thereby mitigating undesired toxic side effects associated with chemotherapy. The selectivity of polyamine-based dinitro-naphthalimide conjugates 5a-5c was evaluated by Snu-368 and Snu-739 (hepatic carcinoma), and the matched normal cells HL-7702 (normal liver cell). Moreover, dinitro-naphthalimide conjugates 5a-5c (SI 1.94–7.47) show lower cytotoxicity in normal cells.

| Structure (SMILES) | IC50 ([1]; Homo sapiens, A549) [µM] | IC50 ([2]; Homo sapiens, MDA-MB-231) [µM] | IC50 ([3]; Homo sapiens, MCF7) [µM] | IC50 ([4]; SNU-739) [µM] | IC50 [5] [µM] | IC50 [6] [µM] | SI (selectivity index) IC50 in HL-7702/IC50 in Snu-368 [7] | SI (selectivity index) IC50 in HL-7702/IC50 in Snu-739 [7] | SI (selectivity index), range over Snu-368 and Snu-739 ([7]; HL-7702 versus Snu-368 and Snu-739) | IC50 ([7]; normal liver cell, read-out: IC50 HL-7702) [µM] | IC50 [1] [µM] | IC50 [2] [µM] | IC50 [3] [µM] | IC50 [4] [µM] | RF (resistance factor) [6] | IC50 ([7]; Homo sapiens, L02, read-out: IC50 HL-7702) [µM] |
| --- | --- | --- | --- | --- | --- | --- | --- | --- | --- | --- | --- | --- | --- | --- | --- | --- |
| NCCCNCCCCNCCCN1C(=O)c2cc(N)cc3cc(N)cc(c23)C1=O [11b] | > 30 | > 30 | 25.9 ± 2.56 | 23.2 ± 2.36 | > 30 | 15.8 ± 1.58 | – | – | – | – | – | – | – | – | – | – |
| N.N.[Cl][Pt][Cl] [Cisplatin, cisplatin, reference compound] | – | – | – | – | 16.4 ± 1.26 | 40.4 ± 4.36 | 0.53 | 0.86 | 0.53–0.86 | 8.6 ± 0.2 | 11 ± 0.15 | 16 ± 1.59 | 9.6 ± 0.6 | 10 ± 1.23 | 3.67 | – |
| NCCCNCCCNCCCN1C(=O)c2cc(N)cc3cc(N)cc(c23)C1=O [11a] | 28.3 ± 2.85 | 26 ± 2.56 | 14.8 ± 1.45 | 9.69 ± 0.98 | > 50 | 16.3 ± 1.69 | – | – | – | – | – | – | – | – | – | – |
| O=C1c2cc([N+](=O)[O-])cc3cc([N+](=O)[O-])cc(c23)C(=O)N1CCCCNCCCCNC1CCCCC1 [5b] | 1.75 ± 0.15 | 1.07 ± 0.1 | 1.25 ± 0.1 | 3.89 ± 0.35 | 2.72 ± 0.25 | 2.27 ± 0.25 | 2.78 | 1.94 | – | – | – | – | – | – | 1.30 | 7.56 ± 0.43 |
